In publication PMC12596218 (Journal of Lipid Research, 2025):
Several values for one entry are separate records, joined by “and”; a condition that tells them apart may be missing. Equal entries are not always repeated. Where two headings read alike, the source gives them in different places.

Legend:
[1] = target: T1, NTCP M290T/I291V (NTCP→mAsbt) (Homo sapiens, UniProt Q14973, I291V/M290T); test: [3H]TC transport and inhibition assay, NTCP→mAsbt mutant in HEK293 cells; format: cell-based; settings: 1 μM [3H]TC, 10 min
T1 construct: stably transfected with the full open reading frames of human NTCP, ASBT, SOAT, OATP1B1, OATP1B3, OATP2B1, and murine Asbt (mAsbt); expressed in transfected cells; host or cells: HEK293, stably transfected
T1 sequence (Q14973 1-349 M290T/I291V): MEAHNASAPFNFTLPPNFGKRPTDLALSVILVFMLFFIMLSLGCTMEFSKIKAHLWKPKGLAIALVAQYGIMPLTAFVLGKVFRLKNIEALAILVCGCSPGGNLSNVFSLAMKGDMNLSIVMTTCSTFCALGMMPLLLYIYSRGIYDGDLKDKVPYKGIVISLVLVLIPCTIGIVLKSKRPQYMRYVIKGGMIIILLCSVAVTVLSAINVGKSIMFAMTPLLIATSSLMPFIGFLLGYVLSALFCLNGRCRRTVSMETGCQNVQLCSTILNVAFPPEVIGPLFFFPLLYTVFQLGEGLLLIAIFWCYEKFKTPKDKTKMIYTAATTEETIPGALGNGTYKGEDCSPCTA
Procedure: Amplification was performed on a peqSTAR XS PEQLAB PCR cycler (Peqlab) with Pfu DNA polymerase (M774A; Promega) in 18 cycles under the following conditions: initial denaturation for 2 min at 95°C, denaturation for 30 s at 95°C, annealing for 1 min at 55°C, extension for 8 min and 30 s at 72°C, final elongation for 10 min at 72°C and final hold at 4°C. After amplification, the products were digested with DpnI (ER1701; Thermo Fisher Scientific) for 1 h at 37°C and transformed into TOP10 chemically competent E. coli (Thermo Fisher Scientific). Plasmids were isolated using a GeneJET Plasmid Miniprep Kit (Thermo Fisher Scientific) according to the manufacturer's protocol, and the generated point mutations were verified by DNA sequencing (Seqlab Microsynth).
(§1) Cells were seeded onto poly-L-lysine-coated 96-well plates, induced with 1 μg/ml tetracycline, and grown to confluence over 72 h at 37°C. Then, cells were washed with tempered (37°C) phosphate-buffered saline (PBS, containing 137.0 mM NaCl, 2.7 mM KCl, 1.5 mM KH2PO4, and 7.3 mM Na2HPO4, at pH 7.4) and preincubated with 80 μl sodium transport buffer (STB, containing 142.9 mM NaCl, 4.7 mM KCl, 1.2 mM MgSO4, 1.2 mM KH2PO4, 1.8 mM CaCl2, and 20.0 mM HEPES, at pH 7.4) for 5 min at 37°C. For inhibition studies, the medium was replaced by 80 μl STB containing the respective inhibitor or solvent alone and cells were further incubated for 5 min at 37°C. Transport experiments were started by adding 20 μl of a 5-fold concentrated substrate solution (solved in STB). For transport experiments under sodium-free conditions the same buffer composition was used as for STB, but sodium chloride was substituted with equimolar concentrations of choline chloride as previously reported ([20], [24]). Transport experiments were stopped by washing twice with ice-cold PBS and the plates were kept cool on ice until adding the lysis buffer [1% sodium dodecyl sulfate (SDS) and 1 N NaOH]. Then, the cell-associated radioactivity of the respective tritium-labeled substrate or ligand was quantified by liquid scintillation counting using MicroScint-20 scintillation cocktail (Revvity) in a Packard Microplate Scintillation Counter TopCount NXT (Packard Instrument Company). For IC50 transport inhibition measurements, the mean uptake values measured in non-carrier-expressing HEK293 control cells were defined as 0% uptake control and were subtracted from all other values. Values from cells without inhibitor and solvent alone were set to 100%. Finally, all net transport data were expressed as uptake or binding as % of control. All transport or inhibition graphs were generated with GraphPad Prism 6 (GraphPad). Determination of half maximal inhibitory concentrations (IC50) was done by nonlinear regression analysis using the equation log (inhibitor) versus response—variable slope settings. All data points of the IC50 curves represent means ± SD of quadruplicate determinations. For Km measurements, BS uptake in the absence of sodium was regarded as carrier-independent unspecific uptake and was subtracted from the transport rates in the presence of sodium to obtain carrier-specific uptake rates (indicated as dashed lines). From the specific uptake rates, Michaelis Menten Km values were calculated by non-linear regression analysis.

SOAT = target: T2, SOAT (Homo sapiens, UniProt Q3KNW5); test: [3H]DHEAS transport inhibition assay in SOAT-HEK293 cells; format: cell-based; settings: 1 μM [3H]DHEAS; for IC50: 10 min, SOAT-HEK293, two independent experiments
T2 construct: stably transfected with the full open reading frames of human NTCP, ASBT, SOAT, OATP1B1, OATP1B3, OATP2B1, and murine Asbt (mAsbt); expressed in transfected cells; host or cells: HEK293 (Flp-In), stably transfected, tetracycline-induced
T2 sequence (Q3KNW5 1-377): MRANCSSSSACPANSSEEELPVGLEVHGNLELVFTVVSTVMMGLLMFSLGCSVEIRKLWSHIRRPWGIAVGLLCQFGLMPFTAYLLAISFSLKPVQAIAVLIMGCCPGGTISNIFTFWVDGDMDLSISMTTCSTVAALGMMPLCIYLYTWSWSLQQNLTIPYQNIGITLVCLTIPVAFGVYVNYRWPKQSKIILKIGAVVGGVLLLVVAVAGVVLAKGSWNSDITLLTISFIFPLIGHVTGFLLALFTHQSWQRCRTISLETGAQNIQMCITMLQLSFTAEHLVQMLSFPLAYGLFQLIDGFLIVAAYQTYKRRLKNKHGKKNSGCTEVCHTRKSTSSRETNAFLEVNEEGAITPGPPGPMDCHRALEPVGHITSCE
From the text: Human embryonic kidney HEK293 cells, stably transfected with the full open reading frames of human NTCP, ASBT, SOAT, OATP1B1, OATP1B3, OATP2B1, and murine Asbt (mAsbt) were used as reported ([18], [20], [21], [22], [23]). The NTCP, ASBT, and mAsbt constructs were C-terminally tagged with the FLAG epitope, and the SOAT construct was C-terminally tagged with green fluorescent protein. Non-transfected Flp-In HEK293 cells (Thermo Fisher Scientific) served as the control. All cell lines were maintained at 37°C, 5% CO2 and 95% humidity in DMEM/F-12 medium (Thermo Fisher Scientific) supplemented with 10% fetal calf serum (Sigma-Aldrich), 4 mM L-glutamine (PAA) and penicillin/streptomycin (PAA). Expression of the respective carrier protein was induced by tetracycline treatment at 1 μg/ml (Carl Roth GmbH + Co. KG).
as §1

OATP1B3 = settings: cited from earlier work; for IC50: read-out: IC50 OATP1B3 inhibition

## CCCCC1(CCCC)CS(=O)(=O)c2ccc(N(C)C)cc2[C@@H](c2ccc(OCc3ccc(C[N+]45CCN(CC4)CC5)cc3)cc2)[C@H]1O [maralixibat]
[1]
  Inhibition curves and AUC of NTCP→mAsbt mutant compared to wild-type NTCP: did not significantly change
SOAT
  IC50: 4.5 µM and 5.9 µM
OATP1B3; in vitro, ref FDA NDA 214662 Livmarli
  OATP1B3 inhibition (in words): In vitro, maralixibat did not inhibit the transporters OATP1B1 and OATP1B3.

## CCCCC1(CCCC)CN(c2ccccc2)c2cc(SC)c(OCC(=O)N[C@@H](C(=O)N[C@@H](CC)C(=O)O)c3ccc(O)cc3)cc2S(=O)(=O)N1 [odevixibat]
[1]
  Inhibition curves and AUC of NTCP→mAsbt mutant compared to wild-type NTCP: did not significantly change
SOAT
  IC50: 5.5 µM and 5.6 µM
OATP1B3; in vitro studies, ref FDA NDA 215498 BYLVAY
  IC50: 0.697 µM
OATP1B3; ref EMA EPAR Product Information Bylvay
  OATP1B3 inhibition (in words): Odevixibat does not inhibit OATP1B1 and OATP1B3.

## CCCC[C@]1(CC)CS(=O)(=O)c2cc(CNC(CC(=O)O)CC(=O)O)c(OC)cc2[C@@H](c2ccccc2)N1 [linerixibat]
[1]
  Inhibition curves and AUC of NTCP→mAsbt mutant compared to wild-type NTCP: still inactive
SOAT; inhibitor up to 100 μM
  SOAT inhibition (in words): failed to significantly inhibit SOAT
OATP1B3
  Substrate of OATP1B3: is a substrate
OATP1B3; ref 65 Zamek-Gliszczynski et al. (2021)
  IC50: 0.265 µM

## CCCCC1(CCCC)CS(=O)(=O)c2ccc(N(C)C)cc2[C@@H](c2ccc(OCCCC[N+]34CCN(CC3)CC4)cc2)[C@H]1O [SC-435]
[1]
  Inhibition curves and AUC of NTCP→mAsbt mutant compared to wild-type NTCP: still inactive
SOAT
  IC50: 8.6 µM and 13.5 µM

## CCCCC1(CCCC)CN(c2ccccc2)c2cc(SC)c(OCC(=O)N[C@@H](C(=O)NCC(=O)O)c3ccccc3)cc2S(=O)(=O)C1 [elobixibat]
[1]
  Inhibition curves and AUC of NTCP→mAsbt mutant compared to wild-type NTCP: did not significantly change
SOAT
  IC50: 3.2 µM and 3.3 µM
OATP1B3; in vitro studies, ref PMDA Goofice Report on the Deliberation Results
  IC50: > 0.6 µM
